According to ChEMBL document CHEMBL1201862, “PubChem BioAssay data set” (2004):
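Each compound was tested at five concentrations against cells in 96-well plates for 48 hours. GI50 = concentration required for 50% inhibition of growth.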 Calls of active or inactive are those of the source. Rule as the data show it: active = GI50 up to about 1.1 µM and inactive = higher.

How the values were obtained:
Assay in all cases: inhibition of tumour cell growth, NCI panel, 48 h
786-0 = system: 786-0
A498 = system: A498
ACHN = system: ACHN
EKVX = system: EKVX
HOP-62 = system: HOP-62
MCF7 = system: MCF7
MDA-MB-435 = system: MDA-MB-435
MDA-N = system: MDA-N
NCI/ADR-RES = system: NCI/ADR-RES
OVCAR-3 = system: OVCAR-3
OVCAR-5 = system: OVCAR-5
OVCAR-8 = system: OVCAR-8
RPMI-8226 = system: RPMI-8226
SK-MEL-28 = system: SK-MEL-28
SNB-19 = system: SNB-19
T47D = system: T47D
TK-10 = system: TK-10
UACC-257 = system: UACC-257
LOX IMVI = system: LOX IMVI
SF-539 = system: SF-539

SMILES	GI50 (786-0)	GI50 (A498)	GI50 (ACHN)	GI50 (EKVX)	GI50 (HOP-62)	GI50 (MCF7)	GI50 (MDA-MB-435)	GI50 (MDA-N)	GI50 (NCI/ADR-RES)	GI50 (OVCAR-3)	GI50 (OVCAR-5)	GI50 (OVCAR-8)	GI50 (RPMI-8226)	GI50 (SK-MEL-28)	GI50 (SNB-19)	GI50 (T47D)	GI50 (TK-10)	GI50 (UACC-257)	GI50 (LOX IMVI)	GI50 (SF-539)
COC(=O)[C@@H](N1C(=O)c2ccccc2C1=O)C1(C)CC(Cl)=NO1 (some centres undefined)	34.8 µM (inactive)	34.7 µM (inactive)	> 100 µM (inactive)	38.8 µM (inactive)	17 µM (inactive)	53.6 µM (inactive)	> 100 µM (inactive)	> 100 µM (inactive)	26.8 µM (inactive)	> 100 µM (inactive)	> 100 µM (inactive)	19.1 µM (inactive)	> 100 µM (inactive)	> 100 µM (inactive)	24.8 µM (inactive)	28.5 µM (inactive)	31.1 µM (inactive)	> 100 µM (inactive)	–	–
COc1ccc(N2C(=O)C3ON(C(C(N)=O)c4ccccc4)C(c4cc5ccccc5c5ccccc45)C3C2=O)cc1 (centres undefined)	32.4 µM (inactive)	> 50 µM (inactive)	> 50 µM (inactive)	24.5 µM (inactive)	> 50 µM (inactive)	15.6 µM (inactive)	18.4 µM (inactive)	11.8 µM (inactive)	> 50 µM (inactive)	31.7 µM (inactive)	> 50 µM (inactive)	> 50 µM (inactive)	–	> 50 µM (inactive)	> 50 µM (inactive)	28.6 µM (inactive)	28.8 µM (inactive)	22.7 µM (inactive)	24.2 µM (inactive)	16.1 µM (inactive)
O=C1C=CC[C@H]2O[C@@H](COC(=O)Cc3ccccc3)C[C@H]2O1	–	> 100 µM (inactive)	32.1 µM (inactive)	29.5 µM (inactive)	41.2 µM (inactive)	44.3 µM (inactive)	40.5 µM (inactive)	41 µM (inactive)	38 µM (inactive)	38.6 µM (inactive)	42.6 µM (inactive)	28.7 µM (inactive)	28.8 µM (inactive)	21.9 µM (inactive)	25.6 µM (inactive)	58.1 µM (inactive)	25.9 µM (inactive)	40.4 µM (inactive)	–	29.6 µM (inactive)
CC(C)(C)OC(=O)CCC1NC(=O)[C@@H]2Cc3c([nH]c4ccccc34)C(c3ccccc3)N2C1=O (some centres undefined)	30.6 µM (inactive)	36.2 µM (inactive)	27.9 µM (inactive)	36.6 µM (inactive)	24.2 µM (inactive)	32.4 µM (inactive)	21.7 µM (inactive)	19.8 µM (inactive)	35.5 µM (inactive)	21.6 µM (inactive)	25.1 µM (inactive)	37.2 µM (inactive)	36.9 µM (inactive)	44.5 µM (inactive)	34.3 µM (inactive)	27.8 µM (inactive)	33.7 µM (inactive)	21.7 µM (inactive)	18.8 µM (inactive)	–
Oc1ccc(O)c(CNc2ccccc2)c1	10.3 µM (inactive)	–	10.5 µM (inactive)	18.7 µM (inactive)	–	15.1 µM (inactive)	8.81 µM (inactive)	3.85 µM (inactive)	7.01 µM (inactive)	4.62 µM (inactive)	21.6 µM (inactive)	8.02 µM (inactive)	1.02 µM (active)	33 µM (inactive)	19.5 µM (inactive)	8.41 µM (inactive)	22.7 µM (inactive)	16.9 µM (inactive)	6.15 µM (inactive)	3.46 µM (inactive)
c1ccc2c(CN3CCN(Cc4c[nH]c5ccccc45)CC3)c[nH]c2c1	16.1 µM (inactive)	14.4 µM (inactive)	19.3 µM (inactive)	13.3 µM (inactive)	15.1 µM (inactive)	17.9 µM (inactive)	16.2 µM (inactive)	14.9 µM (inactive)	23 µM (inactive)	13.1 µM (inactive)	18.7 µM (inactive)	19 µM (inactive)	19.3 µM (inactive)	17.9 µM (inactive)	21.6 µM (inactive)	14.2 µM (inactive)	15.6 µM (inactive)	14.4 µM (inactive)	16.3 µM (inactive)	–
CC(C)(C)OC(=O)NC(Cc1ccc(OCc2ccccc2)cn1)C(=O)NCc1ccccc1 (centres undefined)	27.1 µM (inactive)	32.1 µM (inactive)	31.3 µM (inactive)	26.2 µM (inactive)	23.3 µM (inactive)	29.5 µM (inactive)	20.1 µM (inactive)	19.8 µM (inactive)	16.7 µM (inactive)	19.3 µM (inactive)	38.6 µM (inactive)	26.3 µM (inactive)	16.3 µM (inactive)	31.3 µM (inactive)	49.9 µM (inactive)	16.7 µM (inactive)	30.3 µM (inactive)	16.9 µM (inactive)	19.1 µM (inactive)	–
CO[C@H]1O[C@@H]2CO[C@@H](c3ccccc3)O[C@H]2[C@@H]2C/C=C\CCC[C@@]12O	16.7 µM (inactive)	14.8 µM (inactive)	17.3 µM (inactive)	19.4 µM (inactive)	18 µM (inactive)	19.2 µM (inactive)	24 µM (inactive)	25.1 µM (inactive)	26.9 µM (inactive)	16.3 µM (inactive)	21.7 µM (inactive)	34.1 µM (inactive)	17.2 µM (inactive)	30.1 µM (inactive)	38.7 µM (inactive)	33.2 µM (inactive)	34.8 µM (inactive)	18.5 µM (inactive)	17.8 µM (inactive)	–
Cc1ccc(NC(=O)/C=C/c2ccccc2)c(C)c1	74.5 µM (inactive)	> 100 µM (inactive)	39.6 µM (inactive)	26.6 µM (inactive)	32.7 µM (inactive)	> 100 µM (inactive)	> 100 µM (inactive)	> 100 µM (inactive)	–	> 100 µM (inactive)	> 100 µM (inactive)	37.3 µM (inactive)	> 100 µM (inactive)	> 100 µM (inactive)	> 100 µM (inactive)	> 100 µM (inactive)	> 100 µM (inactive)	> 100 µM (inactive)	> 100 µM (inactive)	> 100 µM (inactive)
COC(=O)C1(CCCCCBr)CCCCCCCCCCC1=O (centres undefined)	30.3 µM (inactive)	28.3 µM (inactive)	40.7 µM (inactive)	78.9 µM (inactive)	> 100 µM (inactive)	15.7 µM (inactive)	37.6 µM (inactive)	29.2 µM (inactive)	37.2 µM (inactive)	28.4 µM (inactive)	37.3 µM (inactive)	54.2 µM (inactive)	–	35.3 µM (inactive)	> 100 µM (inactive)	32.8 µM (inactive)	> 100 µM (inactive)	23.7 µM (inactive)	27.3 µM (inactive)	90.2 µM (inactive)
CCN(CC)CCCNc1nncc2c(C)c3[nH]c4ccccc4c3cc12	0.667 µM (active)	0.665 µM (active)	0.914 µM (active)	1.37 µM (inactive)	0.378 µM (active)	0.331 µM (active)	1.25 µM (inactive)	1.06 µM (active)	89.5 µM (inactive)	1.03 µM (active)	1.71 µM (inactive)	0.685 µM (active)	–	1.24 µM (inactive)	0.644 µM (active)	0.705 µM (active)	4.52 µM (inactive)	1.24 µM (inactive)	0.242 µM (active)	1.12 µM (inactive)
N#Cc1c2c(c(N)oc1=O)C(c1ccccc1)CC(=O)N2 (centres undefined)	> 100 µM (inactive)	–	> 100 µM (inactive)	> 100 µM (inactive)	> 100 µM (inactive)	> 100 µM (inactive)	> 100 µM (inactive)	> 100 µM (inactive)	> 100 µM (inactive)	> 100 µM (inactive)	> 100 µM (inactive)	> 100 µM (inactive)	> 100 µM (inactive)	> 100 µM (inactive)	> 100 µM (inactive)	> 100 µM (inactive)	> 100 µM (inactive)	> 100 µM (inactive)	> 100 µM (inactive)	> 100 µM (inactive)
CC(C)c1ccc2c(c1)C=C1OC(=O)[C@]3(C)CCC[C@@]2(C)C13 (some centres undefined)	> 100 µM (inactive)	–	> 100 µM (inactive)	> 100 µM (inactive)	> 100 µM (inactive)	> 100 µM (inactive)	> 100 µM (inactive)	> 100 µM (inactive)	> 100 µM (inactive)	> 100 µM (inactive)	–	> 100 µM (inactive)	> 100 µM (inactive)	> 100 µM (inactive)	> 100 µM (inactive)	> 100 µM (inactive)	> 100 µM (inactive)	> 100 µM (inactive)	–	> 100 µM (inactive)
O=[N+]([O-])c1cccc2nccc(NCCCO)c12	17.7 µM (inactive)	10.4 µM (inactive)	14.3 µM (inactive)	6.79 µM (inactive)	17.5 µM (inactive)	12.7 µM (inactive)	11.7 µM (inactive)	9.66 µM (inactive)	–	14.6 µM (inactive)	20.1 µM (inactive)	14.5 µM (inactive)	13.6 µM (inactive)	12.4 µM (inactive)	25.1 µM (inactive)	26.4 µM (inactive)	8.79 µM (inactive)	11.4 µM (inactive)	12.9 µM (inactive)	14.5 µM (inactive)
O=Cc1c2ccccc2n2ccc3c4ccccc4[nH]c3c12	> 10 µM (inactive)	–	> 10 µM (inactive)	3.57 µM (inactive)	> 10 µM (inactive)	5.21 µM (inactive)	> 10 µM (inactive)	> 10 µM (inactive)	> 10 µM (inactive)	> 10 µM (inactive)	> 10 µM (inactive)	> 10 µM (inactive)	> 10 µM (inactive)	–	> 10 µM (inactive)	> 10 µM (inactive)	> 10 µM (inactive)	> 10 µM (inactive)	> 10 µM (inactive)	> 10 µM (inactive)
